Biological target: T1, hCB1 (Homo sapiens, UniProt P21554)
T1 construct: made in house; host or cells: Sf9 insect cells (baculovirus), P2 membranes
Experiment: Agonist-induced GTP binding (GTPγ35S) assay at CB1, Example 8
Type: biochemical
Details: IC50 at CB1, determined as described in Example 8; read-out: IC50
How it was run: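 Antagonism read as inhibition of 1 nM CP55,940-stimulated GTPγ35S ([…]) binding, compounds at 10^−10 to 10^−5 M. Baculovirus-infected Sf9 membranes bearing hCB1 plus G-protein subunits, 60 min room-temperature incubation with 5 μM GDP. Filtration and scintillation counting; data as percent over basal.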

T1 sequence (P21554 whole entry): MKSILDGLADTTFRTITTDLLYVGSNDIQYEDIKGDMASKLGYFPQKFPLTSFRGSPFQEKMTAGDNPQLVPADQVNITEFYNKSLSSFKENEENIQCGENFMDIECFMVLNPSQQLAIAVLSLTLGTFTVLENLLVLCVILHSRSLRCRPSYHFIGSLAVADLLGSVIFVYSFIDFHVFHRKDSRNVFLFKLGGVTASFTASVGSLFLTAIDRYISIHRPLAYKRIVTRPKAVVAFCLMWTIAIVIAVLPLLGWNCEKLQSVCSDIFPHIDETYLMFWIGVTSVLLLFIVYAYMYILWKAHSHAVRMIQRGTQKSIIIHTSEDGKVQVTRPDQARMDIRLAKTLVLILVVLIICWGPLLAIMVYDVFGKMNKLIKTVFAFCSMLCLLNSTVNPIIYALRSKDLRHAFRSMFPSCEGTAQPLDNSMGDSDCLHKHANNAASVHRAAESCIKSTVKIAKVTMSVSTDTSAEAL

Row | Compound | IC50
1 | Cc1cccnc1NC(=O)Nc1ccc(OC(F)F)cc1 [Compound 632, 1-[4-(difluoromethoxy)phenyl]-3-(3-methylpyridin-2-yl)urea] | < 2000 nM
2 | Cc1cccc(NC(=O)Nc2ccc(OC(F)F)cc2)n1 [Compound 633, 1-[4-(difluoromethoxy)phenyl]-3-(6-methylpyridin-2-yl)urea] | < 2000 nM
3 | O=C(Nc1ccc(OC(F)F)cc1)Nc1ccc(Cl)cn1 [Compound 634, 1-(5-chloropyridin-2-yl)-3-[4-(difluoromethoxy)phenyl]urea] | < 2000 nM
4 | CC(=O)c1ccc(NC(=O)Nc2ccc(Cl)nc2)cc1 [Compound 637, 1-(4-acetylphenyl)-3-(6-chloropyridin-3-yl)urea] | < 2000 nM
5 | CCc1ccc(NC(=O)Nc2ncccc2C)cc1 [Compound 639, 1-(4-ethylphenyl)-3-(3-methylpyridin-2-yl)urea] | < 2000 nM
6 | CCc1ccc(NC(=O)Nc2cc(C)ccn2)cc1 [Compound 640, 1-(4-ethylphenyl)-3-(4-methylpyridin-2-yl)urea] | < 2000 nM
7 | CCc1ccc(NC(=O)Nc2cc(OC)ncn2)cc1 [Compound 642, 1-(4-ethylphenyl)-3-(6-methoxypyrimidin-4-yl)urea] | < 2000 nM
8 | CCOC(=O)c1cccc(NC(=O)Nc2ccc(F)cc2)c1 [Compound 644, ethyl 3-({[(4-fluorophenyl)amino]carbonyl}amino)benzoate] | < 2000 nM
9 | CCOC(=O)c1cccc(NC(=O)Nc2ccc(CC)cc2)c1 [Compound 646, ethyl 3-({[(4-ethylphenyl)amino]carbonyl}amino)benzoate] | < 2000 nM
10 | CCCc1ccc(NC(=O)Nc2cccc(C(=O)OC)c2)cc1 [Compound 650, methyl 3-({[(4-propylphenyl)amino]carbonyl}amino)benzoate] | < 2000 nM
11 | CCCc1ccc(NC(=O)Nc2ccc(C(=O)OC)cc2)cc1 [Compound 651, methyl 4-({[(4-propylphenyl)amino]carbonyl}amino)benzoate] | < 2000 nM
12 | CCCc1ccc(NC(=O)Nc2ccc(C)c(C)c2)cc1 [Compound 654, 1-(3,4-dimethylphenyl)-3-(4-propylphenyl)urea] | < 2000 nM
13 | CCCc1ccc(NC(=O)Nc2ccc(F)c(C)c2)cc1 [Compound 656, 1-(4-fluoro-3-methylphenyl)-3-(4-propylphenyl)urea] | < 2000 nM
14 | CCOc1cccc(NC(=O)Nc2cccc(C(=O)OC)c2)c1 [Compound 659, methyl 3-({[(3-ethoxyphenyl)amino]carbonyl}amino)benzoate] | < 2000 nM
15 | CCOC(=O)c1ccc(NC(=O)Nc2cccc(OCC)c2)cc1 [Compound 662, ethyl 4-({[(3-ethoxyphenyl)amino]carbonyl}amino)benzoate] | < 2000 nM
16 | CCOc1ccc(NC(=O)Nc2cccc(C(=O)OC)c2)cc1 [Compound 663, methyl 3-({[(4-ethoxyphenyl)amino]carbonyl}amino)benzoate] | < 2000 nM
17 | CCOC(=O)c1cccc(NC(=O)Nc2ccc(OCC)cc2)c1 [Compound 664, ethyl 3-({[(4-ethoxyphenyl)amino]carbonyl}amino)benzoate] | < 2000 nM
18 | CCOC(=O)c1ccc(NC(=O)Nc2cccc(COC)c2)cc1 [Compound 666, ethyl 4-[({[3-(methoxymethyl)phenyl]amino}carbonyl)amino]benzoate] | < 2000 nM
19 | COCc1ccc(NC(=O)Nc2ccc(C(=O)OC)cc2)cc1 [Compound 668, methyl 4-[({[4-(methoxymethyl)phenyl]amino}carbonyl)amino]benzoate] | < 2000 nM

Results, then the compound that gave them:

Row | IC50 | Compound
20 | < 2000 nM | CC(C)c1ccc(NC(=O)Nc2ccc(Cl)nc2)cc1 [Compound 630, 1-(6-chloropyridin-3-yl)-3-(4-isopropylphenyl)urea]
21 | < 2000 nM | O=C(Nc1ccc(OC(F)F)cc1)Nc1ccccn1 [Compound 631, 1-[4-(difluoromethoxy)phenyl]-3-pyridin-2-ylurea]
22 | < 2000 nM | CCc1ccc(NC(=O)Nc2ccc(C#N)cn2)cc1 [Compound 636, 1-(5-cyanopyridin-2-yl)-3-(4-ethylphenyl)urea]
23 | < 2000 nM | CCc1ccc(NC(=O)Nc2ccccn2)cc1 [Compound 638, 1-(4-ethylphenyl)-3-pyridin-2-ylurea]
24 | < 2000 nM | CCc1ccc(NC(=O)Nc2ccc(C)cn2)cc1 [Compound 641, 1-(4-ethylphenyl)-3-(5-methylpyridin-2-yl)urea]
25 | < 2000 nM | CCOC(=O)c1cccc(NC(=O)Nc2ccc(C)cc2)c1 [Compound 643, ethyl 3-({[(4-methylphenyl)amino]carbonyl}amino)benzoate]
26 | < 2000 nM | CCc1ccc(NC(=O)Nc2cccc(C(=O)OC)c2)cc1 [Compound 645, methyl 3-({[(4-ethylphenyl)amino]carbonyl}amino)benzoate]
27 | < 2000 nM | COC(=O)c1cccc(NC(=O)Nc2ccc(Cl)cc2)c1 [Compound 647, methyl 3-({[(4-chlorophenyl)amino]carbonyl}amino)benzoate]
28 | < 2000 nM | CCOC(=O)c1cccc(NC(=O)Nc2ccc(Cl)cc2)c1 [Compound 648, ethyl 3-({[(4-chlorophenyl)amino]carbonyl}amino)benzoate]
29 | < 2000 nM | CCOC(=O)c1cccc(NC(=O)Nc2ccc(C(C)C)cc2)c1 [Compound 649, ethyl 3-({[(4-isopropylphenyl)amino]carbonyl}amino)benzoate]
30 | < 2000 nM | CCCc1ccc(NC(=O)Nc2cccc(C(=O)OCC)c2)cc1 [Compound 652, ethyl 3-({[(4-propylphenyl)amino]carbonyl}amino)benzoate]
31 | < 2000 nM | CCCc1ccc(NC(=O)Nc2ccc(C(=O)OCC)cc2)cc1 [Compound 653, ethyl 4-({[(4-propylphenyl)amino]carbonyl}amino)benzoate]
32 | < 2000 nM | CCCc1ccc(NC(=O)Nc2ccc(C)c(F)c2)cc1 [Compound 655, 1-(3-fluoro-4-methylphenyl)-3-(4-propylphenyl)urea]
33 | < 2000 nM | CCc1ccc(NC(=O)Nc2cc(F)cc(F)c2)cc1 [Compound 657, 1-(3,5-difluorophenyl)-3-(4-ethylphenyl)urea]
34 | < 2000 nM | CCCc1ccc(NC(=O)Nc2cc(C)cc(C)c2)cc1 [Compound 658, 1-(3,5-dimethylphenyl)-3-(4-propylphenyl)urea]
35 | < 2000 nM | CCOc1cccc(NC(=O)Nc2ccc(C(=O)OC)cc2)c1 [Compound 660, methyl 4-({[(3-ethoxyphenyl)amino]carbonyl}amino)benzoate]
36 | < 2000 nM | CCOC(=O)c1cccc(NC(=O)Nc2cccc(OCC)c2)c1 [Compound 661, ethyl 3-({[(3-ethoxyphenyl)amino]carbonyl}amino)benzoate]
37 | < 2000 nM | COCc1cccc(NC(=O)Nc2ccc(C(=O)OC)cc2)c1 [Compound 665, methyl 4-[({[3-(methoxymethyl)phenyl]amino}carbonyl)amino]benzoate]
38 | < 2000 nM | COCc1ccc(NC(=O)Nc2cccc(C(=O)OC)c2)cc1 [Compound 667, methyl 3-[({[4-(methoxymethyl)phenyl]amino}carbonyl)amino]benzoate]
39 | < 2000 nM | CCOC(=O)c1cccc(NC(=O)Nc2ccc(COC)cc2)c1 [Compound 669, ethyl 3-[({[4-(methoxymethyl)phenyl]amino}carbonyl)amino]benzoate]
40 | < 2000 nM | CCOC(=O)c1ccc(NC(=O)Nc2ccc(COC)cc2)cc1 [Compound 670, ethyl 4-[({[4-(methymethyl)phenyl]amino}carbonyl)amino]benzoate]

Reference: US20090239841A1, “Diaryl Ureas as CB1 Antagonists” (priority 2004, published 2009)
